Where “and” joins values, the source holds several entries; their conditions need not be identical. Identical values can stand only once. Inconclusive results and toxic doses are left out. Cut-off read from the data, not from the text of the source: active = T/C of 150% or more; inactive = T/C below 125%.
Tested on: L1210 leukemia ip in BDF1 mice, survival T/C
Test: NCI In Vivo Anticancer Drug Screen. Data for tumor model L1210 Leukemia (intraperitoneal) in B6D2F1 (BDF1) mice
Conditions: endpoint: mean survival time, higher = longer survival
How it was run: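 Transplantable tumor model; survival measured in treated vs vehicle control mice. Value = treated/control.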

[1] = dose: 100.0 mg/kg/injection, schedule: Q04DX002 (ip), vehicle: Klucel (hydroxypropylcellulose) (HPC)
[2] = dose: 200.0 mg/kg/injection, schedule: Q04DX002 (ip), vehicle: Klucel (hydroxypropylcellulose) (HPC)
[3] = dose: 400.0 mg/kg/injection, schedule: Q04DX002 (ip), vehicle: Klucel (hydroxypropylcellulose) (HPC)
[4] = dose: 100.0 mg/kg/injection, schedule: Q01DX001 (ip), vehicle: carboxymethylcellulose (CMC)
[5] = dose: 200.0 mg/kg/injection, schedule: Q01DX001 (ip), vehicle: carboxymethylcellulose (CMC)
[6] = dose: 400.0 mg/kg/injection, schedule: Q01DX001 (ip), vehicle: carboxymethylcellulose (CMC)
[7] = dose: 50.0 mg/kg/injection, schedule: Q01DX009 (ip), vehicle: saline with Tween-80
[8] = dose: 100.0 mg/kg/injection, schedule: Q01DX009 (ip), vehicle: saline with Tween-80
[9] = dose: 200.0 mg/kg/injection, schedule: Q01DX009 (ip), vehicle: saline with Tween-80
[10] = dose: 100.0 mg/kg/injection, schedule: Q04DX003 (ip), vehicle: saline with Tween-80
[11] = dose: 200.0 mg/kg/injection, schedule: Q04DX003 (ip), vehicle: saline with Tween-80
[12] = dose: 400.0 mg/kg/injection, schedule: Q04DX003 (ip), vehicle: saline with Tween-80

Measured: T/C

Cc1cc2c(C(C)C)c(O)c(O)c(C=O)c2c(O)c1-c1c(C)cc2c(C(C)C)c(O)c(O)c(C=O)c2c1O
inactive: dose: 0.25 mg/kg/injection, schedule: Q01DX009 (ip), vehicle: saline 105 % of control | dose: 0.5 mg/kg/injection, schedule: Q01DX009 (ip), vehicle: saline 110 % of control | dose: 1.0 mg/kg/injection, schedule: Q01DX009 (ip), vehicle: saline 106 % of control | dose: 2.0 mg/kg/injection, schedule: Q01DX009 (ip), vehicle: saline 106 % of control | dose: 4.0 mg/kg/injection, schedule: Q01DX009 (ip), vehicle: saline 108 % of control | dose: 8.0 mg/kg/injection, schedule: Q01DX009 (ip), vehicle: saline 101 % of control

Cc1ccc(S(=O)(=O)OC23CCC(C)(CC2)C2(C3)OCCO2)cc1
inactive: dose: 100.0 mg/kg/injection, schedule: Q04DX002 (ip), vehicle: saline 95 % of control | dose: 200.0 mg/kg/injection, schedule: Q04DX002 (ip), vehicle: saline 98 % of control | dose: 400.0 mg/kg/injection, schedule: Q04DX002 (ip), vehicle: saline 98 % of control

CCOC(=O)C1C(=O)CC(=O)C(C(=O)OCC)C1c1cc(OC)c(OC)c(OC)c1 (configuration not stated)
inactive: [1] 91 % of control | [2] 91 % of control | [3] 94 % of control

Clc1c(C(Cl)(Cl)Cl)nc2ccccc2c1Br
inactive: dose: 6.25 mg/kg/injection, schedule: Q01DX009 (ip), vehicle: Klucel (hydroxypropylcellulose) (HPC) 101 % of control | dose: 12.5 mg/kg/injection, schedule: Q01DX009 (ip), vehicle: Klucel (hydroxypropylcellulose) (HPC) 97 % of control | dose: 25.0 mg/kg/injection, schedule: Q01DX009 (ip), vehicle: Klucel (hydroxypropylcellulose) (HPC) 97 % of control

COc1cccc2c1OC(COS(C)(=O)=O)CO2 (configuration not stated) (tested in a mixture with another compound)
inactive: [4] 95 % of control | [5] 95 % of control | [6] 97 % of control

CCCCCCCCCCCCCCCCCC(=O)OCCOC(=O)CCCCCCCCCCCCCCCCC
inactive: dose: 75.0 mg/kg/injection, schedule: Q01DX009 (ip), vehicle: other 103 % of control | dose: 100.0 mg/kg/injection, schedule: Q04DX002 (ip), vehicle: other 88 % of control | dose: 150.0 mg/kg/injection, schedule: Q01DX009 (ip), vehicle: other 96 % of control | dose: 200.0 mg/kg/injection, schedule: Q04DX002 (ip), vehicle: other 98 % of control | dose: 300.0 mg/kg/injection, schedule: Q01DX009 (ip), vehicle: other 111 % of control

CCCCNC(=O)C1CC2c3cccc4c3c(cn4C)CC2N(C)C1 (configuration not stated)
inactive: dose: 3.12 mg/kg/injection, schedule: Q01DX009 (ip), vehicle: saline 100 % of control | dose: 6.25 mg/kg/injection, schedule: Q01DX009 (ip), vehicle: saline 92 % of control | dose: 12.5 mg/kg/injection, schedule: Q01DX009 (ip), vehicle: saline 100 % of control | dose: 25.0 mg/kg/injection, schedule: Q01DX009 (ip), vehicle: saline 94 % of control | dose: 50.0 mg/kg/injection, schedule: Q01DX009 (ip), vehicle: saline 101 % of control

CCOc1ccc(OC/C=C(\C)CC/C=C(/C)CC)cc1
inactive: dose: 100.0 mg/kg/injection, schedule: Q04DX002 (ip), vehicle: saline with Tween-80 96 % of control | dose: 200.0 mg/kg/injection, schedule: Q04DX002 (ip), vehicle: saline with Tween-80 99 % of control | dose: 400.0 mg/kg/injection, schedule: Q04DX002 (ip), vehicle: saline with Tween-80 108 % of control

Nc1cc(N)c2cccnc2c1O
inactive: dose: 2.0 mg/kg/injection, schedule: Q01DX015 (ip), vehicle: saline 101 % of control | dose: 4.0 mg/kg/injection, schedule: Q01DX015 (ip), vehicle: saline 101 % of control

O=C(CC1(O)C(=O)Nc2ccccc21)C12CC3CC(CC(C3)C1)C2 (configuration not stated)
inactive: [7] 104 % of control | [8] 101 % of control | [9] 96 % of control

Cc1ccc2nc3c(nc2c1)-c1cccc2cccc-3c12
inactive: dose: 25.0 mg/kg/injection, schedule: Q01DX009 (ip), vehicle: saline with Tween-80 94 % of control | [7] 90 % of control | [10] 102 % of control | [11] 93 % of control

O=C1C=CC(=O)N1c1ccc(Br)c(Cl)c1
inactive: dose: 12.5 mg/kg/injection, schedule: Q04DX002 (ip), vehicle: other 121 % of control | dose: 25.0 mg/kg/injection, schedule: Q04DX002 (ip), vehicle: other 105 % of control | dose: 50.0 mg/kg/injection, schedule: Q04DX002 (ip), vehicle: other 112 % of control

CCCCNC(C)[C@]1(O)Cc2c(O)c3c(c(O)c2[C@@H](OC2CC(N)C(O)C(C)O2)C1)C(=O)c1c(OC)cccc1C3=O (some centres not stated)
inactive: dose: 1.56 mg/kg/injection, schedule: Q01DX009 (ip), vehicle: water 104 % of control | dose: 3.13 mg/kg/injection, schedule: Q01DX009 (ip), vehicle: water 119 % of control | dose: 6.25 mg/kg/injection, schedule: Q01DX009 (ip), vehicle: water 117 % of control

CC1=CC2CCC1C2 (configuration not stated)
inactive: dose: 75.0 mg/kg/injection, schedule: Q01DX001 (ip), vehicle: acetone 101 % of control | dose: 150.0 mg/kg/injection, schedule: Q01DX001 (ip), vehicle: acetone 95 % of control

NS(=O)(=O)c1ccc(N/N=c2\c(=O)c(=O)c3ccccc3c2=O)cc1
inactive: dose: 100.0 mg/kg/injection, schedule: Q01DX001 (ip), vehicle: other 101 % of control | dose: 100.0 mg/kg/injection, schedule: Q04DX003 (ip), vehicle: other 95 % of control | dose: 200.0 mg/kg/injection, schedule: Q01DX001 (ip), vehicle: other 90 % of control | dose: 200.0 mg/kg/injection, schedule: Q04DX003 (ip), vehicle: other 108 % of control | dose: 400.0 mg/kg/injection, schedule: Q01DX001 (ip), vehicle: other 93 % of control | dose: 400.0 mg/kg/injection, schedule: Q04DX003 (ip), vehicle: other 90 % of control

CCOC(=O)CCCC(=O)N(CC(=O)OCC)Cc1ccccc1
inactive: [10] 102 % of control | [11] 93 % of control | [12] 90 % of control

CC(C)C(=O)Nc1ccc([N+](=O)[O-])c(C(F)(F)F)c1
inactive: dose: 100.0 mg/kg/injection, schedule: Q01DX001 (ip), vehicle: Klucel (hydroxypropylcellulose) (HPC) 102 % of control | dose: 100.0 mg/kg/injection, schedule: Q01DX009 (ip), vehicle: Klucel (hydroxypropylcellulose) (HPC) 93 % of control and 109 % of control | dose: 100.0 mg/kg/injection, schedule: Q01DX009 (ip), vehicle: saline 105 % of control | [1] 97 % of control and 92 % of control | dose: 100.0 mg/kg/injection, schedule: Q04DX003 (ip), vehicle: Klucel (hydroxypropylcellulose) (HPC) 100 % of control | dose: 100.0 mg/kg/injection, schedule: Q04DX003 (ip), vehicle: saline 108 % of control | dose: 200.0 mg/kg/injection, schedule: Q01DX001 (ip), vehicle: Klucel (hydroxypropylcellulose) (HPC) 102 % of control | dose: 200.0 mg/kg/injection, schedule: Q01DX009 (ip), vehicle: Klucel (hydroxypropylcellulose) (HPC) 100 % of control and 103 % of control | dose: 200.0 mg/kg/injection, schedule: Q01DX009 (ip), vehicle: saline 92 % of control | [2] 100 % of control and 102 % of control | dose: 200.0 mg/kg/injection, schedule: Q04DX003 (ip), vehicle: Klucel (hydroxypropylcellulose) (HPC) 109 % of control | dose: 200.0 mg/kg/injection, schedule: Q04DX003 (ip), vehicle: saline 101 % of control | dose: 400.0 mg/kg/injection, schedule: Q01DX001 (ip), vehicle: Klucel (hydroxypropylcellulose) (HPC) 110 % of control | [3] 100 % of control and 113 % of control | dose: 400.0 mg/kg/injection, schedule: Q04DX003 (ip), vehicle: Klucel (hydroxypropylcellulose) (HPC) 92 % of control | dose: 400.0 mg/kg/injection, schedule: Q04DX003 (ip), vehicle: saline 88 % of control

Cn1nnnc1N/N=C(\Br)c1ccccc1
inactive: [8] 96 % of control | [10] 104 % of control | [9] 93 % of control | [11] 104 % of control | dose: 400.0 mg/kg/injection, schedule: Q01DX009 (ip), vehicle: saline with Tween-80 95 % of control | [12] 100 % of control

CCCCC(=O)N/N=C/c1cc(OCC)c(OCC)cc1OCC
inactive: [4] 96 % of control | [5] 98 % of control | [6] 91 % of control

— PubChem BioAssay AID248 (DTP/NCI, 2004)
